Test results as given in ChEMBL document CHEMBL1126391 (Bioorg Med Chem Lett, 1992).

Experiments:
[1] = target: T1, Human immunodeficiency virus type 1 reverse transcriptase (Human immunodeficiency virus 1, UniProt Q72547); test: Ability to inhibit HIV-1 IIIB reverse transcriptase catalyzed incorporation of tritiated thymidine triphosphate onto a biotinylated rA.dT template primer
[2] = target: T1, Human immunodeficiency virus type 1 reverse transcriptase; test: Ability to inhibit HIV-1 IIIB reverse transcriptase catalyzed incorporation of tritiated thymidine triphosphate onto a biotinylated rN.dN template primer
[3] = Concentration determined to be cytotoxic (reduced cell number as compared with controls), was recorded after 7 days incubation in the […] assay system; format: cell-based; settings: human, H9 cells (H9/HIV-IIIB assay system); read-out: Cell toxicity
[4] = tested on: C8166; test: In vitro anti-viral activity against C8166 cells (human T-cell line), expressed as the lowest test concentration affording complete protection to the culture (Infectious titre); 0.01-0.1; format: functional
[5] = tested on: H9; test: In vitro antiviral activity against human T-cell line (H9) infected with HIV-1 IIIB was determined as the lowest concentration required to reduce tissue culture supernatant p24 levels on day 7 by 90%; format: functional; settings: H9, 168 h
[6] = tested on: C8166; test: In vitro anti-viral activity against C8166 cells (human T-cell line), expressed as the lowest test concentration affording complete protection to the culture (Infectious titre);. 0.1-1; format: functional
[7] = tested on: C8166; test: In vitro anti-viral activity against C8166 cells (human T-cell line), expressed as the lowest test concentration affording complete protection to the culture (Infectious titre); 0.1-1; format: functional
[8] = tested on: C8166; test: In vitro anti-viral activity against C8166 cells (human T-cell line), expressed as the lowest test concentration affording complete protection to the culture (Infectious titre); format: functional
[9] = tested on: C8166; test: In vitro anti-viral activity against C8166 cells (human T-cell line), expressed as the lowest test concentration affording complete protection to the culture (Infectious titre);. 0.1-0.5; format: functional
[10] = tested on: C8166; test: In vitro anti-viral activity against C8166 cells (human T-cell line), expressed as the lowest test concentration affording complete protection to the culture (Infectious titre); 0.1-0.5; format: functional

| IC50 [1] [nM] | IC50 [2] [nM] | IC90 [5] [nM] | Compound | MCC at 168 h [3] [µM] | other results |
| --- | --- | --- | --- | --- | --- |
| 2700 | 1770 | – | CCN1c2ncccc2-c2ncc(C)n2-c2ccc(N3CCCC3)nc21 | – | – |
| 1220 | 425 | 18 | CCN1c2ncccc2-c2ncc(C)n2-c2cccnc21 | > 100 | IC100 [4]: 0.01 µM |
| 23900 | 6980 | – | CCN1c2ncccc2-c2nccn2-c2ccc(O)nc21 | – | – |
| 11200 | 2750 | – | CCN1c2ncccc2-c2nc(C)cn2-c2cccnc21 | – | – |
| 12200 | 3200 | 110 | CCN1c2ncccc2-c2ncc(C)n2-c2ccc(O)nc21 | > 100 | IC100 [7]: 0.1 µM |
| 598 | 258 | 8 | CCN1c2ncccc2-c2nccn2-c2ccc(OC)nc21 | > 10 | IC100 [8]: 0.1 µM |
| 5630 | 1100 | – | CCc1cnc2n1-c1cccnc1N(CC)c1ncccc1-2 | – | – |
| 38900 | – | – | CCN1c2ncccc2-c2nnc(C)n2-c2cccnc21 | – | – |
| 2400 | 1100 | 250 | CCN1c2ncccc2-c2ncc(C)n2-c2ccc(N(C)C)nc21 | > 100 | IC100 [7]: 0.1 µM |
| > 100000 | > 100000 | – | CCN1c2ncccc2-c2nnc(CN(C)C)n2-c2cccnc21 | – | – |
| 3900 | 2190 | 41 | CCN1c2ncccc2-c2nccn2-c2ccc(N(C)C)nc21 | 10 | IC100 [8]: 0.1 µM |
| 190 | 156 | 2.3 | CCN1c2ncccc2-c2ncc(C)n2-c2ccc(OC)nc21 | > 10 | IC100 [8]: 0.01 µM |

Continued, compound first:

| Compound | IC50 [1] [nM] | IC50 [2] [nM] | IC90 [5] [nM] | MCC at 168 h [3] [µM] | other results |
| --- | --- | --- | --- | --- | --- |
| Cc1ccnc2c1-n1ccnc1-c1cccnc1N2C1CC1 | 2050 | 217 | – | – | – |
| CCN1c2ncccc2-c2nccn2-c2c(C)ccnc21 | 1620 | 245 | 550 | > 100 | IC100 [6]: 0.1 µM |
| CCN1c2ncccc2-c2nnc(C)n2-c2c(C)ccnc21 | 198000 | – | – | – | – |
| CCN1c2ncccc2-c2nnnn2-c2c(C)ccnc21 | 75100 | 6720 | – | – | – |
| CCN1c2ncccc2-c2nnc(C(C)C)n2-c2cccnc21 | > 100000 | 62600 | – | – | – |
| CCN1c2ncccc2-c2nccn2-c2cccnc21 | 11200 | 775 | 70 | 50 | IC100 [9]: 0.1 µM |
| CCN1c2ncccc2C(=O)Nc2c(C)ccnc21 | 10300 | 1500 | – | – | – |
| CCN1c2ncccc2-c2nncn2-c2c(C)ccnc21 | 44500 | – | – | – | – |
| Cc1nnc2n1-c1cccnc1N(C1CC1)c1ncccc1-2 | 11500 | 7820 | – | – | – |
| CCN1c2ncccc2-c2nccn2-c2ccc(N3CCCC3)nc21 | 3900 | 2000 | 82 | 100 | IC100 [7]: 0.1 µM |
| CCc1nnc2n1-c1cccnc1N(CC)c1ncccc1-2 | 56600 | 20200 | – | – | – |
| Cc1ccnc2c1NC(=O)c1cccnc1N2C1CC1 [NEVIRAPINE] | – | – | 78 | > 10 | IC100 [10]: 0.1 µM |
| CCN1c2ncccc2-c2nncn2-c2cccnc21 | 72800 | – | – | – | – |
| CCN1c2ncccc2-c2nnc(-c3ccccc3)n2-c2cccnc21 | > 100000 | – | – | – | – |
